Tests used:
Format in all cases: cell-based
[1] = Displacement of [3H]epibatidine from Aplysia californica AchBP A107M mutant expressed in HEK293S cells by scintillation proximity assay
[2] = Displacement of [3H]epibatidine from Aplysia californica AchBP I118M, M116L mutant expressed in HEK293S cells by scintillation proximity assay
[3] = Displacement of [3H]epibatidine from Aplysia californica AchBP V108M, M116L mutant expressed in HEK293S cells by scintillation proximity assay
[4] = Displacement of [3H]epibatidine from Aplysia californica AchBP I118M, M116L, Y195F mutant expressed in HEK293S cells by scintillation proximity assay
[5] = Displacement of [3H]epibatidine from Aplysia californica AchBP S114M, M116L mutant expressed in HEK293S cells by scintillation proximity assay
[6] = Displacement of [3H]epibatidine from Aplysia californica AchBP M116L mutant expressed in HEK293S cells by scintillation proximity assay
[7] = Displacement of [3H]epibatidine from Aplysia californica AchBP S114M, M116L, Y195F mutant expressed in HEK293S cells by scintillation proximity assay
[8] = Displacement of [3H]epibatidine from Aplysia californica AchBP M116L,Y195F mutant expressed in HEK293S cells by scintillation proximity assay
[9] = Displacement of [3H]epibatidine from Aplysia californica AchBP M116Y mutant expressed in HEK293S cells by scintillation proximity assay
[10] = Displacement of [3H]epibatidine from wild type Aplysia californica AchBP expressed in HEK293S cells by scintillation proximity assay
[11] = Displacement of [3H]epibatidine from Aplysia californica AchBP V108M, M116L, Y195F mutant expressed in HEK293S cells by scintillation proximity assay
[12] = Displacement of [3H]epibatidine from Aplysia californica AchBP A107M, M116L, Y195F mutant expressed in HEK293S cells by scintillation proximity assay
[13] = Displacement of [3H]epibatidine from Aplysia californica AchBP I118M mutant expressed in HEK293S cells by scintillation proximity assay
[14] = Displacement of [3H]epibatidine from Aplysia californica AchBP A107M, M116L mutant expressed in HEK293S cells by scintillation proximity assay
[15] = Displacement of [3H]epibatidine from Aplysia californica AchBP V108M mutant expressed in HEK293S cells by scintillation proximity assay
[16] = Displacement of [3H]epibatidine from Aplysia californica AchBP S114M mutant expressed in HEK293S cells by scintillation proximity assay
[17] = Displacement of [3H]epibatidine from Aplysia californica AchBP Y195F mutant expressed in HEK293S cells by scintillation proximity assay
[18] = Displacement of [3H]epibatidine from Aplysia californica AchBP I106M, M116L mutant expressed in HEK293S cells by scintillation proximity assay
[19] = Displacement of [3H]epibatidine from Aplysia californica AchBP I106M, M116L, Y195F mutant expressed in HEK293S cells by scintillation proximity assay
[20] = Displacement of [3H]epibatidine from Aplysia californica AchBP M116Y, Y195F mutant expressed in HEK293S cells by scintillation proximity assay

SMILES	Kd [1]	Kd [2]	Kd [3]	Kd [4]	Kd [5]	Kd [6]	Kd [7]	Kd [8]	Kd [9]	Kd [10]	Kd [11]	Kd [12]	Kd [13]	Kd [14]	Kd [15]	Kd [16]	Kd [17]	Kd [18]	Kd [19]	Kd [20]
N#C/N=c1\sccn1Cc1ccc(Cl)nc1 [THIACLOPRID OLEFIN]	4 nM	299 nM	4.8 nM	247 nM	5.6 nM	11 nM	13 nM	4.7 nM	144 nM	2.8 nM	1.8 nM	20 nM	239 nM	3 nM	9.2 nM	6.2 nM	3.1 nM	4.3 nM	4.9 nM	60 nM
[N-]=[N+]=Nc1cc(C2CC3CCC2N3)cnc1Cl (stereo not given) [AZIDOEPIBATIDINE]	7.2 nM	4.8 nM	0.58 nM	12 nM	15 nM	21 nM	19 nM	10 nM	34 nM	10 nM	0.33 nM	37 nM	4.5 nM	8.1 nM	1.5 nM	12 nM	8.6 nM	30 nM	22 nM	67 nM
N#C/N=c1\sccn1Cc1cnc(Cl)c(N=[N+]=[N-])c1	3 nM	68 nM	0.46 nM	172 nM	3 nM	9.6 nM	7.2 nM	3 nM	27 nM	1.7 nM	0.17 nM	17 nM	70 nM	1.6 nM	1.1 nM	2 nM	2.3 nM	3.2 nM	5.5 nM	19 nM
